Data as given in ChEMBL document CHEMBL1201862, “PubChem BioAssay data set” (2004).
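Values below derive from 48-hour exposures of cells grown in 96-well plates, with endpoints linearly interpolated between the two concentrations bracketing the appropriate inhibition level. Here, GI50 denotes the concentration required for 50% inhibition of growth.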 Calls of active or inactive are those of the source. Rule as the data show it: active = GI50 up to about 1.1 µM and inactive = higher.

Columns and labels:
Experiment in all cases: growth of human tumour cells (NCI), 48 h
[1] = test system: ACHN
[2] = test system: U-251
[3] = test system: NCI-H226
[4] = test system: MDA-MB-435
[5] = test system: HCT-15
[6] = test system: OVCAR-8
[7] = test system: SK-MEL-28
[8] = test system: A549
[9] = test system: CAKI-1
[10] = test system: MDA-MB-231
[11] = test system: MDA-N
[12] = test system: MOLT-4
[13] = test system: K562
[14] = test system: DU-145
[15] = test system: LOX IMVI
[16] = test system: HOP-92
[17] = test system: KM12
[18] = test system: SF-268
[19] = test system: SNB-75
[20] = test system: NCI-H522

Compound	GI50 [1]	GI50 [2]	GI50 [3]	GI50 [4]	GI50 [5] [µM]	GI50 [6]	GI50 [7]	GI50 [8]	GI50 [9]	GI50 [10]	GI50 [11]	GI50 [12]	GI50 [13]	GI50 [14]	GI50 [15]	GI50 [16]	GI50 [17]	GI50 [18]	GI50 [19]	GI50 [20]
Nc1nc2c(=O)c3ccccc3sc2s1	45.5 µM (inactive)	45.1 µM (inactive)	21.7 µM (inactive)	> 100 µM (inactive)	34.5	22.6 µM (inactive)	> 100 µM (inactive)	33.7 µM (inactive)	20.4 µM (inactive)	31.9 µM (inactive)	> 100 µM (inactive)	47.4 µM (inactive)	34.8 µM (inactive)	68.9 µM (inactive)	46.1 µM (inactive)	37.4 µM (inactive)	> 100 µM (inactive)	40.6 µM (inactive)	40.5 µM (inactive)	–
CCCC(=O)C1=C(O)C(Cc2c(O)c(C)c(O)c(C(=O)CCC)c2O)=C(O)C(C)(C)C1=O	> 50 µM (inactive)	22.9 µM (inactive)	–	> 50 µM (inactive)	20	> 50 µM (inactive)	16.2 µM (inactive)	25.2 µM (inactive)	> 50 µM (inactive)	> 50 µM (inactive)	> 50 µM (inactive)	11 µM (inactive)	15.4 µM (inactive)	> 50 µM (inactive)	19 µM (inactive)	10.2 µM (inactive)	23.8 µM (inactive)	34.8 µM (inactive)	29.4 µM (inactive)	–
CCOC(=O)c1ccc(C(=O)/C(C(C)=O)=C2\CCCN2C)n1C	> 100 µM (inactive)	86.5 µM (inactive)	> 100 µM (inactive)	> 100 µM (inactive)	68.7	> 100 µM (inactive)	> 100 µM (inactive)	> 100 µM (inactive)	> 100 µM (inactive)	27.5 µM (inactive)	86.3 µM (inactive)	23.1 µM (inactive)	62.7 µM (inactive)	> 100 µM (inactive)	53.8 µM (inactive)	–	29.1 µM (inactive)	> 100 µM (inactive)	10.9 µM (inactive)	57.5 µM (inactive)
O=c1cc(-c2ccncc2)[nH]c2cc3c(cc12)OCO3	> 100 µM (inactive)	> 100 µM (inactive)	> 100 µM (inactive)	> 100 µM (inactive)	> 100	> 100 µM (inactive)	> 100 µM (inactive)	> 100 µM (inactive)	–	> 100 µM (inactive)	> 100 µM (inactive)	> 100 µM (inactive)	–	> 100 µM (inactive)	–	> 100 µM (inactive)	> 100 µM (inactive)	> 100 µM (inactive)	49.7 µM (inactive)	–
N#CCCN(CCCN(CCCN(C(=O)Nc1ccccc1)c1ccccc1)C(=O)Nc1ccccc1)C(=O)Nc1ccccc1	> 8.75 µM (inactive)	> 100 µM (inactive)	31.4 µM (inactive)	> 8.75 µM (inactive)	> 100	> 8.75 µM (inactive)	> 8.75 µM (inactive)	> 8.75 µM (inactive)	> 8.75 µM (inactive)	> 8.75 µM (inactive)	> 8.75 µM (inactive)	> 8.75 µM (inactive)	> 8.75 µM (inactive)	> 8.75 µM (inactive)	> 100 µM (inactive)	20.2 µM (inactive)	> 8.75 µM (inactive)	> 8.75 µM (inactive)	> 8.75 µM (inactive)	–
C=CCCC(=O)C(=[N+]=[N-])C(=O)CCC(=O)c1ccccc1	> 10 µM (inactive)	> 10 µM (inactive)	> 10 µM (inactive)	> 10 µM (inactive)	> 10	> 10 µM (inactive)	> 10 µM (inactive)	> 10 µM (inactive)	–	> 10 µM (inactive)	> 10 µM (inactive)	> 10 µM (inactive)	> 10 µM (inactive)	> 10 µM (inactive)	> 10 µM (inactive)	> 10 µM (inactive)	–	> 10 µM (inactive)	8.38 µM (inactive)	–
Cn1cc[n+](-c2cc(=O)n(C)c(=O)[n-]2)c1	> 100 µM (inactive)	> 100 µM (inactive)	91.8 µM (inactive)	> 100 µM (inactive)	> 100	–	> 100 µM (inactive)	> 100 µM (inactive)	–	> 100 µM (inactive)	> 100 µM (inactive)	77.8 µM (inactive)	81.8 µM (inactive)	> 100 µM (inactive)	> 100 µM (inactive)	> 100 µM (inactive)	> 100 µM (inactive)	> 100 µM (inactive)	–	–
Cc1nn(-c2ccccc2)c(C)c1/C=N/N=C1\S/C(=C\c2ccc(Cl)cc2)C(=O)N1c1ccccc1	68.7 µM (inactive)	10.9 µM (inactive)	> 100 µM (inactive)	32 µM (inactive)	9.89	40.3 µM (inactive)	> 100 µM (inactive)	10.7 µM (inactive)	> 100 µM (inactive)	34.7 µM (inactive)	62.5 µM (inactive)	14.2 µM (inactive)	7.91 µM (inactive)	> 100 µM (inactive)	> 100 µM (inactive)	91 µM (inactive)	7.67 µM (inactive)	51.5 µM (inactive)	11.6 µM (inactive)	–
O=C1C2=Cc3ccccc3OC2(O)Oc2cc(O)cc(O)c21 (stereo not drawn)	> 100 µM (inactive)	> 100 µM (inactive)	> 100 µM (inactive)	> 100 µM (inactive)	> 10	> 100 µM (inactive)	> 100 µM (inactive)	> 100 µM (inactive)	> 100 µM (inactive)	> 100 µM (inactive)	> 100 µM (inactive)	> 100 µM (inactive)	81.7 µM (inactive)	> 100 µM (inactive)	> 100 µM (inactive)	> 100 µM (inactive)	> 100 µM (inactive)	> 100 µM (inactive)	> 100 µM (inactive)	–
COc1cc(C=O)cc(/C=N/c2ccccn2)c1O	2.34 µM (inactive)	13 µM (inactive)	4.84 µM (inactive)	9.29 µM (inactive)	29	2.78 µM (inactive)	3.32 µM (inactive)	32 µM (inactive)	2.94 µM (inactive)	9.02 µM (inactive)	7.23 µM (inactive)	24.5 µM (inactive)	61.1 µM (inactive)	> 100 µM (inactive)	14.1 µM (inactive)	2.72 µM (inactive)	24.5 µM (inactive)	3.37 µM (inactive)	3.78 µM (inactive)	–
COc1ccc(/N=N/c2c(C)c(C#N)c(=S)n(C3OC(CO)C(O)C(O)C3O)c2C)cc1 (stereo not drawn)	36.4 µM (inactive)	51.5 µM (inactive)	–	38.8 µM (inactive)	53.1	–	30.8 µM (inactive)	52.1 µM (inactive)	56.2 µM (inactive)	62.8 µM (inactive)	30.6 µM (inactive)	21.8 µM (inactive)	29 µM (inactive)	44.7 µM (inactive)	56.4 µM (inactive)	16.9 µM (inactive)	73.1 µM (inactive)	45.9 µM (inactive)	83.6 µM (inactive)	–
